Data published in ChEMBL document CHEMBL1201862, “PubChem BioAssay data set” (2004).
The source made the active and inactive calls.

Tests used:
[1] = Shn3 3'UTR reporter inhibitors, dose response, cell-based, Clone20 osteoblasts, firefly luciferase, cherry-picked (AID 624132); format: functional;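 note: firefly luciferase luminescence from reporter carrying the Shn3 3'UTR in osteoblasts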
[2] = control 3'UTR Renilla luciferase suppression, dose response, counter-screen for Shn3 inhibitor project, cell-based, Clone20-Shn3RL, cherry-picked (AID 624133); format: functional
[3] = target: Neurotensin receptor type 1 (Homo sapiens, UniProt P30989); format: functional;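 note: Image-based confirmatory dose-response assay measuring agonist activity at NTR1; NTR1-expressing U2OS osteosarcoma cells imaged for beta-arrestin GFP spot formation; agonist potency where compounds increase beta-arrestin recruitment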
INS1 = assay: beta cell apoptosis inhibitors, cytokine rescue, dose response, luminescence, retest (AID 449756); format: functional, cell-based; details: Rattus norvegicus;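 note: cell death triggered by IL-1 beta plus TNF-alpha plus IFN-gamma mixture; protective hits raise ATP signal compared with cytokine alone wells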
[4] = HepG2 cell cytotoxicity, dose response, cytotoxicity control for Shn3 inhibitor project, CellTiter-Glo, cherry-picked (AID 624134); format: functional, cell-based
[5] = Luminescence Cell-Based Dose Retest to Confirm Inhibitors of Cancer Stem Cells. [Related pubchem assays (depositor defined):AID2717, AID2721]; format: functional; details: Homo sapiens
[6] = target: Peroxisome proliferator-activated receptor gamma/Nuclear receptor coactivator 1 (Homo sapiens, UniProt P37231); format: functional;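 note: agonist potency as compounds enhance coactivator SRC-1 recruitment to PPARgamma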
[7] = target: Peroxisome proliferator-activated receptor gamma/Nuclear receptor coactivator 3 (Homo sapiens, UniProt P37231); format: functional;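 note: agonist potency for raising coactivator recruitment to the receptor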
[8] = target: Peroxisome proliferator-activated receptor gamma/Nuclear receptor coactivator 2 (Homo sapiens, UniProt P37231); format: functional;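 note: agonist potency for raising coactivator recruitment to the receptor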
Coagulation factor XII = target: T1, Coagulation factor XII (Homo sapiens, UniProt P00748); format: functional;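 note: activated factor XIIa alpha cleaving a fluorogenic AMC peptide substrate; inhibitor potency from loss of enzyme activity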
T1 sequence (P00748 whole entry): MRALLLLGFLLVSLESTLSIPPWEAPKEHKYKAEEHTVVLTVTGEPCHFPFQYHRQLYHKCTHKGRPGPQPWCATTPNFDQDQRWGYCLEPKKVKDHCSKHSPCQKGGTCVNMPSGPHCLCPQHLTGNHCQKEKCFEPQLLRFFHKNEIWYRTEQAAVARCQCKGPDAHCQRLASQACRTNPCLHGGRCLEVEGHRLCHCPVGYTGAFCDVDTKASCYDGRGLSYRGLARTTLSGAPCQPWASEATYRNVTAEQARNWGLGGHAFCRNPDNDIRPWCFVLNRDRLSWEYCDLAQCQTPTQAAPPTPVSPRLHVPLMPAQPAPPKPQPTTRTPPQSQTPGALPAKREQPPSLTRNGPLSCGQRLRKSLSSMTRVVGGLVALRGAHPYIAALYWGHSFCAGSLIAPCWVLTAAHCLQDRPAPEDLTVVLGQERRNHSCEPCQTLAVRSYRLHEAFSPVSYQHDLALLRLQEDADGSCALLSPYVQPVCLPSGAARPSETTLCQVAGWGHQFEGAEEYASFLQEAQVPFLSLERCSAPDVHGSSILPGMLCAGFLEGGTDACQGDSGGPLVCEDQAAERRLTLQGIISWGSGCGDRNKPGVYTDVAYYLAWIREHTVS

[9] = target: Eukaryotic translation initiation factor 4E (Mus musculus, UniProt P63073); assay: eIF4E–eIF4G protein interaction inhibitors, dose response, biochemical, TR-FRET (AID 855); format: functional;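 note: potency for disrupting eIF4E binding to eIF4GI seen as loss of FRET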
[10] = target: Glyceraldehyde-3-phosphate dehydrogenase (Homo sapiens, UniProt P04406)
[11] = target: T2, Alkaline phosphatase, tissue-nonspecific isozyme (Homo sapiens, UniProt P05186); assay: human TNAP enzyme inhibitors, SAR follow-up, biochemical, luminescent, dose response (AID 1056)
T2 sequence (P05186 whole entry): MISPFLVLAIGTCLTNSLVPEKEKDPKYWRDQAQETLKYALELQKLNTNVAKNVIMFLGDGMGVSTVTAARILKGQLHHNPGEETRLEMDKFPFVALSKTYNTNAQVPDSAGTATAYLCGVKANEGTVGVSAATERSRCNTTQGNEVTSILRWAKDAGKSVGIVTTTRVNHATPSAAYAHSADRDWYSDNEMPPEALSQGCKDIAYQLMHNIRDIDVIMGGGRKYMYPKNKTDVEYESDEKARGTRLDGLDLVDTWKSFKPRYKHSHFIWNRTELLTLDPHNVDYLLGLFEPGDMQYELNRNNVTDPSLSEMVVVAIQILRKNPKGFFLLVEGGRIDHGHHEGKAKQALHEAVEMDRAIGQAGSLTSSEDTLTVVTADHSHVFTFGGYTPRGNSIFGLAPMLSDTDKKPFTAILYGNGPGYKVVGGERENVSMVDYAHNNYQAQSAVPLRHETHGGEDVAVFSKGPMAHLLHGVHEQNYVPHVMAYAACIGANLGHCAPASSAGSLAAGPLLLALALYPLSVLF

[12] = target: T3, Corticotropin-releasing factor receptor 2/Corticotropin-releasing factor-binding protein (Homo sapiens, UniProt P24387+Q13324); assay: activators of CRF receptor 2 with binding protein – uHTS hits, confirmation (AID 602473); format: functional; details: read-out: EC50_Mean
T3 sequence (Q13324 whole entry): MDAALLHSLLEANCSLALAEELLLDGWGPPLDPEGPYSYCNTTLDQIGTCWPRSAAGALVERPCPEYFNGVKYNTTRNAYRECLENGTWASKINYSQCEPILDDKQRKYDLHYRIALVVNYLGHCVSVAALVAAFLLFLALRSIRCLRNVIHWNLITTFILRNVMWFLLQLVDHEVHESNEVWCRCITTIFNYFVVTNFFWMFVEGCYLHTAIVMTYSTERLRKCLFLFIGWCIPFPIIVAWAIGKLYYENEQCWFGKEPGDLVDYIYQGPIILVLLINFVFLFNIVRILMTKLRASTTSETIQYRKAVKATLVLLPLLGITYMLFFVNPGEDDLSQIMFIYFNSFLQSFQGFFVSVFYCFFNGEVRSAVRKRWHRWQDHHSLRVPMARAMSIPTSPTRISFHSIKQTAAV
T3 sequence (P24387 whole entry): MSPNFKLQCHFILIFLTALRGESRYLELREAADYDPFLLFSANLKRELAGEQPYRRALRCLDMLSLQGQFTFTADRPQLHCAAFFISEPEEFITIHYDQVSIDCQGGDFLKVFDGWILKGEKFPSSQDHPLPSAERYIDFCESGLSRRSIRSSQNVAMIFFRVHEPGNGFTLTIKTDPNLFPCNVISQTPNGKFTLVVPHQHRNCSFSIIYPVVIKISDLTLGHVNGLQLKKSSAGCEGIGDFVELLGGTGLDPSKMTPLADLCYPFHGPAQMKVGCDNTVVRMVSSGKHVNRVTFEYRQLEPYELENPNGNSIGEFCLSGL

[13] = CRF-BP/CRF-R2 complex antagonists, dose response, cell-based, uHTS hits, 384-well (AID 651639); format: functional, Homo sapiens; details: read-out: IC50_Mean
[14] = target: T3, Corticotropin-releasing factor receptor 2/Corticotropin-releasing factor-binding protein; assay: Dose Response confirmation of uHTS hits for small molecule antagonists of the CRF-binding protein and CRF-R2 receptor complex.; format: functional; details: read-out: IC50_Mean
[15] = A Cell Based Secondary Assay to Explore Cytotoxicity in THP-1 Cells of Compounds that Modulate Mycobacterium tuberculosis in Media Containing Glycerol versus Media without Glycerol (2).; format: functional
[16] = Vero cell cytotoxicity, cytotoxicity control for M. tuberculosis inhibitor project, purified and synthesized samples, set 3 (AID 504684); format: functional
[17] = target: Photoreceptor-specific nuclear receptor (Homo sapiens, UniProt Q9Y5X4); format: functional, cell-based;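 note: CHO-S cells with Gal4-NCOR and VP16-NR2E3 two-hybrid luciferase reporter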
[18] = target: Heat shock protein HSP 90-alpha (Homo sapiens, UniProt P07900); format: functional, organism-based

Chain of Eukaryotic translation initiation factor 4E (P63073 whole entry): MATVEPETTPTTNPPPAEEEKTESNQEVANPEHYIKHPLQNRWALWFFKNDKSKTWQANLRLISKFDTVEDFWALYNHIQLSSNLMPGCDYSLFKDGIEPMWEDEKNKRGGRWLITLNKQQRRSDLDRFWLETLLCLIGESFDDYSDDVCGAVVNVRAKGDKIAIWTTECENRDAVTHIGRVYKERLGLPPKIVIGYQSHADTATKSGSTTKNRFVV
Chain of Photoreceptor-specific nuclear receptor (Q9Y5X4 whole entry, the tested form may be a part): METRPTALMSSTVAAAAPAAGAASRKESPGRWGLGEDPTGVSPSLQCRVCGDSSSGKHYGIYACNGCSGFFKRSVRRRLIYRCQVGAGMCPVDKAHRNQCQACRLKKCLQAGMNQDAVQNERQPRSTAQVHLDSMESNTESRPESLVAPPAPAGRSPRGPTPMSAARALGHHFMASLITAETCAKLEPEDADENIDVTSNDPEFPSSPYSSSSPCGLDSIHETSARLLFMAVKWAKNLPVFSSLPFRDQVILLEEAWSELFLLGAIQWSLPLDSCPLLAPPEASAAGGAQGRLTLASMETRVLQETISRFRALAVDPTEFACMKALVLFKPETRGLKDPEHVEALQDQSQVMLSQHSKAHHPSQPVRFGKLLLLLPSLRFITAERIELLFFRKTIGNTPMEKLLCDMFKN
Chain of Glyceraldehyde-3-phosphate dehydrogenase (P04406 whole entry): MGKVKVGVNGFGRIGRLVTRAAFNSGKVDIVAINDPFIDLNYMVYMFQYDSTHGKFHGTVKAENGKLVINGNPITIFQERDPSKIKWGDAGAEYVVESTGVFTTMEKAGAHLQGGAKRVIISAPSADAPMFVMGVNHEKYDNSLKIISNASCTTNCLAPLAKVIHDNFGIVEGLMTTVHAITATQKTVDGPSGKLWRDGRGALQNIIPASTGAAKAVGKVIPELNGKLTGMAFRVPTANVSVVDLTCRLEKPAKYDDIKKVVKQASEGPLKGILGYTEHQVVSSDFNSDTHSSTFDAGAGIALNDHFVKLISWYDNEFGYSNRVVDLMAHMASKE
Chain of Neurotensin receptor type 1 (P30989 whole entry): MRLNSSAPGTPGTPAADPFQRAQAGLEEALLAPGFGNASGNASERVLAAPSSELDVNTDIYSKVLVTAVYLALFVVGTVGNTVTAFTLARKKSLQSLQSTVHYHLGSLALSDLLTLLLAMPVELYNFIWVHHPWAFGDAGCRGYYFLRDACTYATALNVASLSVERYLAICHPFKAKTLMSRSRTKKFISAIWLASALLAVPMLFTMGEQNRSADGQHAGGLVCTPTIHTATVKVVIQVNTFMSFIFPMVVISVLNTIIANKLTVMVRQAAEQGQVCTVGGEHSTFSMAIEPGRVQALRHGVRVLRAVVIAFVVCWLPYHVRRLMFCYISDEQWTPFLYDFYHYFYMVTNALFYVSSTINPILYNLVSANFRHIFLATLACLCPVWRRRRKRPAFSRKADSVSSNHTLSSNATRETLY
Chain of Peroxisome proliferator-activated receptor gamma/Nuclear receptor coactivator 1 (P37231 whole entry): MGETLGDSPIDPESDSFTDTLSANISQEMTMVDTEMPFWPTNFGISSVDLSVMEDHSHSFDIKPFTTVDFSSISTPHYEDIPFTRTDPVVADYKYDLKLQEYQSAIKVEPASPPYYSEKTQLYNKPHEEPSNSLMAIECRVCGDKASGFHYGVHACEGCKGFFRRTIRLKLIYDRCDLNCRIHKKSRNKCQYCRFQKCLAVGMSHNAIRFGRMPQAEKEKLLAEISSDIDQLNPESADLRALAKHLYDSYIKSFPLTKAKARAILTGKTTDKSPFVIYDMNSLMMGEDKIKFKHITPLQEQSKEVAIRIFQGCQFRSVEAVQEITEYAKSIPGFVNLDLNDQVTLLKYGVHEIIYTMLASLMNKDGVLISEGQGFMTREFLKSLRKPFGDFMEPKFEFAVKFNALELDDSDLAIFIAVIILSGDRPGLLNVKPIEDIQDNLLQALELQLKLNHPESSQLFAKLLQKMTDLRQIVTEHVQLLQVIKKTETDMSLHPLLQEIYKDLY
Chain of Peroxisome proliferator-activated receptor gamma/Nuclear receptor coactivator 1 (Q15788 whole entry, further chain): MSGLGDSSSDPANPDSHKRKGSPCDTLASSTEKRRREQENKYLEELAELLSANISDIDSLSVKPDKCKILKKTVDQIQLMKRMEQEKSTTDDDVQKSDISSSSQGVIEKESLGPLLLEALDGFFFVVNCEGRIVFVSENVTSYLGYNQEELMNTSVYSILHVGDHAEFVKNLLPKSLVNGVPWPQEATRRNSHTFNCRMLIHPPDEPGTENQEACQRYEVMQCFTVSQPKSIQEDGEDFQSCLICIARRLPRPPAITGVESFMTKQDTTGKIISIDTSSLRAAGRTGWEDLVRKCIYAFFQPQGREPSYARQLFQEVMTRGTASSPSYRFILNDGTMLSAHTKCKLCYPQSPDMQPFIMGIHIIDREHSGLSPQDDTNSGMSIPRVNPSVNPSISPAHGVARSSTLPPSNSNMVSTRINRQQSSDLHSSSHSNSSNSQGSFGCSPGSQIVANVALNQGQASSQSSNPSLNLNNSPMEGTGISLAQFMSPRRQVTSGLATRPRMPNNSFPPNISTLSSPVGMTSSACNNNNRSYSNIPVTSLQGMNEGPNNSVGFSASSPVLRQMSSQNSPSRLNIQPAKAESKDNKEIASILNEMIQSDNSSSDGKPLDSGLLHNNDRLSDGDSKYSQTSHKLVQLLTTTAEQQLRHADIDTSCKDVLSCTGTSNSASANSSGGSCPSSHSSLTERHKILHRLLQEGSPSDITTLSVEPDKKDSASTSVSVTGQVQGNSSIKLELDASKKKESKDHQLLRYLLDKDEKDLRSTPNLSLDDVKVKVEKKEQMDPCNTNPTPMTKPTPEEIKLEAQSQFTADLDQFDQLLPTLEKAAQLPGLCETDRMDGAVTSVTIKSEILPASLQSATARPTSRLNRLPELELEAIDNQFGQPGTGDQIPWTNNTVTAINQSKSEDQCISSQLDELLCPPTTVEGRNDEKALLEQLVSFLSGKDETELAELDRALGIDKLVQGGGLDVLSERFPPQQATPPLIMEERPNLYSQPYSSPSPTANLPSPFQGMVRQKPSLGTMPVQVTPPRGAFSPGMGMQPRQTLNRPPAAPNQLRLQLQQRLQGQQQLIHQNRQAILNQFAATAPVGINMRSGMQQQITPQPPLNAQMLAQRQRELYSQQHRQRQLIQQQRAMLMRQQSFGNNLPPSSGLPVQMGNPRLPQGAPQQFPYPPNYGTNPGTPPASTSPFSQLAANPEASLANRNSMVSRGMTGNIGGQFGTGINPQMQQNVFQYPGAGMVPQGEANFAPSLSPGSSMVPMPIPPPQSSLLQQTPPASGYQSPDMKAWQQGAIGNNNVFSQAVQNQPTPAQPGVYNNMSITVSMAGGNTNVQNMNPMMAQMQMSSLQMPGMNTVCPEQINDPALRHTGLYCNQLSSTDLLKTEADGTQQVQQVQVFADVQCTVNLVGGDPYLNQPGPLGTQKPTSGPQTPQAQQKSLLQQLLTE

Cc1cc(F)ccc1S(=O)(=O)Nc1ccccc1C(=O)Nc1ccccc1-c1nc2ccccc2[nH]1
AC50 [1]: 12.1 µM (active) | AC50 [2]: 9.69 µM (active) | EC50 [3]: 29 µM (inactive) | AC50 (INS1): 6.59 µM (active) | AC50 [4]: 23.2 µM (active) | AC50 [5]: 2.02 µM (active)

OC(C#CCN1CCCC1)(c1ccccc1)c1cccc(F)c1 (stereo unspecified)
EC50 [6]: > 79.4 µM (not active) | EC50 [7]: > 79.4 µM (not active) | EC50 [8]: > 79.4 µM (not active)

CCC(C)NC(=O)C1CN(S(=O)(=O)c2ccccc2)CCN1S(=O)(=O)c1ccccc1 (stereo unspecified)
IC50 (Coagulation factor XII): > 50 µM (inactive)

CC(C)CC(=O)N1CCN(Cc2cccc(F)c2)CC1
IC50 [9]: > 64 µM (inactive)

COc1ccc(S(=O)(=O)Nc2ccncc2)cc1OC
IC50 [10]: > 100 µM (not active) | IC50 [11]: > 100 µM (inactive)

COc1ccc(C2=CSC3=NCCN23)cc1F
IC50 (Coagulation factor XII): > 50 µM (inactive) | IC50 [9]: > 64 µM (inactive)

CN(Cc1ccccc1)c1nc2c(c(=O)[nH]c(=O)n2C)n1CCCSc1ncccn1
IC50 (Coagulation factor XII): > 50 µM (inactive)

CCOC(=O)/C(C#N)=C\c1ccc2c(c1)OCO2
EC50 [12]: > 53 µM (inactive) | IC50 [13]: > 20 µM (inactive) | IC50 [14]: 2.02 µM (active)

CCn1c2ccccc2c2cc(NC(=O)CSc3nc(C)cc(=O)[nH]3)ccc21
CC50 [15]: 41.1 µM (active) | CC50 [16]: 56 µM (active)

O=C(OC12CC3CC(CC(C3)C1)C2)c1ccc(NCc2cc(O)ccc2O)cc1
IC50 [17]: 4.09 µM (active) | AC50 [1]: 2.33 µM (active) | AC50 [2]: 3.99 µM (active) | AC50 [18]: 5.15 µM (active) | AC50 [4]: 53 µM (active)
